According to patent US20110173718A1, “HERBICIDE TOLERANT PLANTS” (SYNGENTA CROP PROTECTION, INC., priority 2008, published 2011):

Legend:
Arabidopsis HST = target: T1, Arabidopsis HST (Arabidopsis thaliana, UniProt Q1ACB3); assay: HST total extraction (non TLC) assay, recombinant Arabidopsis HST from insect cells; type: biochemical
T1 construct: GST (factor Xa cleavage site) (N); made in house; host or cells: Sf9 insect cells (baculovirus, pAcG3X), membrane fraction
T1 sequence (Q1ACB3 70-386): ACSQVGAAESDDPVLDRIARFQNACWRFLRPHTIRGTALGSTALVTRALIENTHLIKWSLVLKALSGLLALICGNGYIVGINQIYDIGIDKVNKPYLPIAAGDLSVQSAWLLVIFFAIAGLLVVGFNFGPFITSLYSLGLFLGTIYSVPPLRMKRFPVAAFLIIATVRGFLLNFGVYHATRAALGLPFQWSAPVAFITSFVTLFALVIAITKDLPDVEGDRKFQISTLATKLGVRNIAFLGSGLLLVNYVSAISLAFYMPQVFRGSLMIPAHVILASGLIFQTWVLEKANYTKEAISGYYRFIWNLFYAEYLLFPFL

weeds [1] = assay: Glasshouse weed control, HST inhibitors alone and with A22, post-emergence; type: in vivo; conditions: 336 h, 14 DAT, single replicate, read-out: % control score, Obs; for pest or weed control at 15.625 g/ha: 15.625 g/ha alone; for pest or weed control at 62.5 g/ha: 62.5 g/ha alone; for pest or weed control at 250 g/ha: 250 g/ha alone
Summary of the method: (§1)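 Weeds grown in glasshouse trays (24-27 C day, 18-21 C night, ~15 h photoperiod) and track-sprayed in 0.2% X77 at […], pre-emergence or post-emergence at about 7-12 d. HPPD inhibitor A22 applied at 2 g/ha alone or mixed with HST herbicides. Damage scored 0–100% at 14 DAT; synergy calculated by Colby formula.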

weeds [2] = assay: Glasshouse weed control, HST inhibitors alone and with A22, pre-emergence; type: in vivo; conditions: 336 h, 14 DAT; for pest or weed control at 15.625 g/ha: HST inhibitor rate 15.625 g/ha; for pest or weed control at 62.5 g/ha: HST inhibitor rate 62.5 g/ha; for pest or weed control at 250 g/ha: HST inhibitor rate 250 g/ha
Summary of the method: as §1

[3] = BRAPL, read-out: BRAPL Obs, % control score
[4] = PANMI, read-out: PANMI Obs, % control score
[5] = SIDSP, read-out: SIDSP Obs, % control score
[6] = Digitaria sanguinalis, DIGSA, read-out: DIGSA Obs, % control score
[7] = Echinochloa crus-galli, ECHCG, read-out: ECHCG Obs, % control score
[8] = Setaria faberi, SETFA, read-out: SETFA Obs, % control score

Compound	Estimated IC50 (ppm) (Arabidopsis HST)	pest or weed control at 15.625 g/ha (weeds [1]; BRAPL) [%]	pest or weed control at 62.5 g/ha (weeds [1]; BRAPL) [%]	pest or weed control at 250 g/ha (weeds [1]; BRAPL) [%]	pest or weed control at 15.625 g/ha (weeds [1]; PANMI) [%]	pest or weed control at 62.5 g/ha (weeds [1]; PANMI) [%]	pest or weed control at 250 g/ha (weeds [1]; PANMI) [%]	pest or weed control at 15.625 g/ha (weeds [1]; SIDSP) [%]	pest or weed control at 62.5 g/ha (weeds [1]; SIDSP) [%]	pest or weed control at 250 g/ha (weeds [1]; SIDSP) [%]	pest or weed control at 15.625 g/ha (weeds [1]; Digitaria sanguinalis, DIGSA) [%]	pest or weed control at 62.5 g/ha (weeds [1]; Digitaria sanguinalis, DIGSA) [%]	pest or weed control at 250 g/ha (weeds [1]; Digitaria sanguinalis, DIGSA) [%]	pest or weed control at 15.625 g/ha (weeds [1]; Echinochloa crus-galli, ECHCG) [%]	pest or weed control at 62.5 g/ha (weeds [1]; Echinochloa crus-galli, ECHCG) [%]	pest or weed control at 250 g/ha (weeds [1]; Echinochloa crus-galli, ECHCG) [%]	pest or weed control at 15.625 g/ha (weeds [1]; Setaria faberi, SETFA) [%]	pest or weed control at 62.5 g/ha (weeds [1]; Setaria faberi, SETFA) [%]	pest or weed control at 250 g/ha (weeds [1]; Setaria faberi, SETFA) [%]	pest or weed control at 15.625 g/ha (weeds [2]; [3]) [%]	further results
O=c1c(-c2c(Cl)cccc2C(F)(F)F)c(O)c2nccnc2n1CC(F)F [Compound 2.20]	16	30	50	95	15	45	85	10	50	55	20	60	80	20	60	90	25	65	80	0	pest or weed control at 62.5 g/ha (weeds [2]; [3]): 10%; pest or weed control at 250 g/ha (weeds [2]; [3]): 60%; pest or weed control at 15.625 g/ha (weeds [2]; [4]): 0%; pest or weed control at 62.5 g/ha (weeds [2]; [4]): 2%; pest or weed control at 250 g/ha (weeds [2]; [4]): 30%; pest or weed control at 15.625 g/ha (weeds [2]; [5]): 0%; pest or weed control at 62.5 g/ha (weeds [2]; [5]): 0%; pest or weed control at 250 g/ha (weeds [2]; [5]): 5%; pest or weed control at 15.625 g/ha (weeds [2]; [6]): 0%; pest or weed control at 62.5 g/ha (weeds [2]; [6]): 0%; pest or weed control at 250 g/ha (weeds [2]; [6]): 20%; pest or weed control at 15.625 g/ha (weeds [2]; [7]): 1%; pest or weed control at 62.5 g/ha (weeds [2]; [7]): 15%; pest or weed control at 250 g/ha (weeds [2]; [7]): 90%; pest or weed control at 15.625 g/ha (weeds [2]; [8]): 0%; pest or weed control at 62.5 g/ha (weeds [2]; [8]): 20%; pest or weed control at 250 g/ha (weeds [2]; [8]): 65%
O=c1c(-c2c(F)ccc(Cl)c2Cl)c(O)c2nccnc2n1CC(F)F [Compound 2.21]	64	5	30	80	10	30	70	5	20	40	0	10	20	0	10	40	2	20	60	0	pest or weed control at 62.5 g/ha (weeds [2]; [3]): 2%; pest or weed control at 250 g/ha (weeds [2]; [3]): 5%; pest or weed control at 15.625 g/ha (weeds [2]; [4]): 0%; pest or weed control at 62.5 g/ha (weeds [2]; [4]): 0%; pest or weed control at 250 g/ha (weeds [2]; [4]): 0%; pest or weed control at 15.625 g/ha (weeds [2]; [5]): 0%; pest or weed control at 62.5 g/ha (weeds [2]; [5]): 0%; pest or weed control at 250 g/ha (weeds [2]; [5]): 1%; pest or weed control at 15.625 g/ha (weeds [2]; [6]): 0%; pest or weed control at 62.5 g/ha (weeds [2]; [6]): 0%; pest or weed control at 250 g/ha (weeds [2]; [6]): 0%; pest or weed control at 15.625 g/ha (weeds [2]; [7]): 0%; pest or weed control at 62.5 g/ha (weeds [2]; [7]): 0%; pest or weed control at 250 g/ha (weeds [2]; [7]): 5%; pest or weed control at 15.625 g/ha (weeds [2]; [8]): 0%; pest or weed control at 62.5 g/ha (weeds [2]; [8]): 0%; pest or weed control at 250 g/ha (weeds [2]; [8]): 2%
